Like-named read-outs stand apart in the source and are kept apart here.
Legend:
[1] = test system: peripheral blood mononuclear cells (PBMCs) of healthy donors; experiment: AnnexinV/PI assay on PBMCs of healthy donors; type: cell-based; settings: Homo sapiens, PBMC
Protocol: (§1) PBMCs or CLL cells (5*10^6 cells/ml) were incubated for 24 h with different compounds at concentrations from 0.01 to 100 μM. Cell survival was normalized to DMSO control [vehicle]. See Example 1.
(§2) Primary CLL or peripheral blood mononuclear cells of healthy donors (5*10^6/ml) were incubated for 24 h with different compounds according to the invention and NO-ASA as a control. The compounds were added in different concentrations, in particular in concentrations from 0.01-100 μM. Cell survival was assessed by AnnexinV/PI assay (Kit commercially available, e.g. by Biotium Inc, USA; or Phoenix Flow Systems, US), the results were normalized to DMSO control [vehicle] and dose response curves were calculated using a non-linear regression model.

[2] = test system: Primary CLL cells; experiment: AnnexinV/PI assay on primary CLL cells; type: cell-based, human; settings: for EC50: Homo sapiens, CLL cell, read-out: AnnexinV/PI assay EC50 Primary CLL; for selectivity for CLL cells compared to PBMCs: FIG. 3, sensitivity of CLL cells vs PBMCs
Protocol: as §1, §2

[3] = test system: phosphorylated NFkappaBp65 protein; experiment: Western blot of NFkappaB phosphorylation status in CLL cells; type: cell-based, human; settings: 3 h; for reduction of NFkappaB activity (phosphorylated NFkappaBp65): CLL cells, 0.1, 1, 10 μM; for concentration inducing the reduction of NFkappaB p65 protein: CLL cells
Protocol: CLL cells were treated with B1, B9, B12 and B13 (0.1 μM, 1 μM, 10 μM) for 3 h. Untreated and DMSO (1%) treated cells served as control. GAPDH=loading control.
The BCR signalling pathway plays an important pathogenic role in CLL and lymphomas leading often to a constitutive active NFkappaB (in this state NFkappaB is phosphorylated). Therefore the influence of the derivatives on the phosphorylation status of NFkappaB was analyzed by Western Blot. CLL cells were treated with 0.1 μM, 1 μM or 10 μM of each derivate, respectively, for 3 h. CLL cells were treated with B1, B9, B12 and B13 (0.1 μM, 1 μM, 10 μM) for 3 h. Untreated and DMSO (1%) treated cells served as control. GAPDH=loading control.

[4] = test system: SW480, MelJuso, HCC44, SH2 and COLO704 cell lines; type: cell-based; settings: 24 h, 0.01-100 μM
Protocol: (§3) In the following experiment the possible therapeutic window for NO-ASA derivatives was investigated. […] The melanoma cell line MelJuso, the colon carcinoma cell line SW480, the small cell lung cancer cell line HCC44, the ovarian adenocarcinoma cell line COLO704 and the acute myeloid leukemia cell line SH2 were treated with concentrations of p-NO-ASA and B9, B12 and B13 in a range between 0.01 μM and 100 μM for 24 h, followed by addition of luminogenic CellTiter-Glo® reagent.

[5] = test system: JVM-3; experiment: CellTiter-Glo ATP assay, JVM-3 cell line; type: cell-based, human; settings: 24 h, 0.01-1000 μM
Protocol: (§4) Several cell lines (n=5) were treated with different concentrations of p-NO-ASA, B9, B12 and B13 ranging between 0.01 μM and 1000 μM for 24 hours followed by addition of luminogenic CellTiter-Glo®-reagent. […] For each cell line the order of used compound in the bar chart is from left to right as following: p-NO-ASA, B9, B12, B13.
(§5) Treatment success in CLL may depend on cytogenetic and molecular parameters as for instance del13q or TP53 gene disruption. Therefore, the NO-ASA derivatives were examined on (chronic) B cell lymphoma cell lines with different geno- and phenotypes (JVM3, EHEB, U2932, MEC-1, GRANTA-519). The cells were treated with concentrations between 0.01 and 1000 μM for 24 h followed by the addition of luminogenic CellTiter-Glo® reagent.

[6] = test system: EHEB; experiment: CellTiter-Glo ATP assay, EHEB cell line; type: cell-based; settings: 24 h, 0.01-1000 μM
Protocol: as §4, §5

[7] = test system: colon carcinoma cell line SW480; experiment: cells; type: cell-based; settings: Homo sapiens, SW480, 24 h, read-out: Viability assay EC50, SW480
Protocol: The cell lines (n=5) were treated with different concentrations of p-NO-ASA, B9, B12 and B13 ranging between 0.01 μM and 100 μM for 24 hours followed by addition of luminogenic CellTiter-Glo®-reagent (see Example 5).
as §3
(§6) Table accompanying Example 5. Overview of the EC50 values of cell survival analyzed by ATP content and Annexin V/PI assay. n.t.; not tested

[8] = test system: several cancer cell lines; experiment: Apoptosis (Annexin V/PI) assay, panel of cancer cell lines; type: cell-based; settings: range over the cancer cell lines, 24 h; read-out: concentrations inducing apoptosis in different diseases (apoptosis array)
[9] = test system: melanoma cell line MelJuso; experiment: Annexin V/PI assay, MelJuso; type: cell-based; settings: Homo sapiens, MEL-JUSO, 24 h
[10] = test system: melanoma cell line MelJuso; experiment: Viability assay (ATP content, CellTiter-Glo), MelJuso; type: cell-based; settings: Homo sapiens, MEL-JUSO, 24 h
Protocol: as §3, §6

[11] = test system: U2932; experiment: CellTiter-Glo ATP assay, U2932 cell line; type: cell-based; settings: 24 h, 0.01-1000 μM
Protocol: as §4, §5

[12] = test system: MEC-1; experiment: CellTiter-Glo ATP assay, MEC-1 cell line; type: cell-based; settings: Homo sapiens, MEC1; 24 h, CellTiter-Glo
Protocol: as §4, §5

[13] = test system: ovarian adenocarcinoma cell line COLO704; experiment: Viability assay (ATP content, CellTiter-Glo), COLO704; type: cell-based; settings: COLO 704, 24 h
Protocol: as §3, §6

[14] = test system: acute myeloid leukemia cell line SH2; experiment: Viability assay (ATP content, CellTiter-Glo), SH2; type: cell-based; settings: 24 h
Protocol: as §3, §6

[15] = test system: small cell lung cancer cell line HCC44; experiment: Annexin V/PI assay, HCC44; type: cell-based; settings: Homo sapiens, HCC44, 24 h
[16] = test system: acute myeloid leukemia cell line SH2; experiment: Annexin V/PI assay, SH2; type: cell-based; settings: 24 h
[17] = test system: TP53-mutated CLL cells; experiment: FACS analysis of treated CLL cells with TP53 mutation; type: cell-based, human; settings: 24 h, 0.01-100 μM, FIG. 6
Protocol: (§7) Isolated, primary CLL cells were treated for 24 h with the EC50 of the different compounds and the ATP-content was measured by flow cytometry. For each used compound the order of mean EC50 concentrations in the bar chart is from left to right as following: EC50 CLL cells TP53 unmut (unmutated=without mutation), EC50 CLL cells TP53 mut (mutated=with mutation).
(§8) Further, the derivatives B9, B12 and B13 were tested in comparison to para-NO-ASA on CLL cells which harbour a TP53 mutation. The patient subgroup with a TP53 disruption is characterized by a considerable dismal prognosis. CLL cells of patients with and without the TP53 mutation were treated with five different concentrations (0.01, 0.1, 1, 10, 100 μM) of para-NO-ASA, B9, B12 and B13 for 24 h.

[18] = test system: ovarian adenocarcinoma cell line COLO704; experiment: Annexin V/PI assay, COLO704; type: cell-based; settings: COLO 704, 24 h
[19] = test system: GRANTA-519; experiment: CellTiter-Glo ATP assay, GRANTA-519 cell line; type: cell-based; settings: Homo sapiens, Granta-519; 24 h, CellTiter-Glo
Protocol: as §4, §5

[20] = test system: CLL cells without a TP53 mutation; experiment: FACS analysis of treated CLL cells without TP53 mutation; type: cell-based, human; settings: 24 h, 0.01-100 μM, FIG. 6
Protocol: as §7, §8

[21] = test system: small cell lung cancer cell line HCC44; experiment: Viability assay (ATP content, CellTiter-Glo), HCC44; type: cell-based
Protocol: as §3, §6

[22] = 24 h incubation, 0.01-100 μM, 5*10^6 cells/ml, normalized to DMSO control, read-out: AnnexinV/PI assay EC50 PBMCs
[23] = 24 h incubation, 0.01-100 μM, 5*10^6 cells/ml, normalized to DMSO control
[24] = 24 h incubation, value extrapolated beyond tested 0.01-100 μM, read-out: AnnexinV/PI assay EC50 PBMCs (* = extrapolated)

SMILES: O=C(Oc1ccc(CO[N+](=O)[O-])cc1)C1CCCCC1 [B14, 4-((nitrooxy)methyl)phenyl cyclohexane carboxylate]
- EC50 [1, 22]: 20.2 µM
- EC50 [2, 23]: 3.31 µM

SMILES: CC(C)(C)[Si](C)(C)OCc1ccc(OC(=O)c2ccccc2)cc1 [B7, 4-(((tert-butyldimethylsilyl)oxy)methyl)phenyl benzoate]
- EC50 [1, 24]: 203 µM
- EC50 [2, 23]: 52.8 µM

SMILES: CC(=O)Oc1cc(C)ccc1C(=O)Oc1ccc(CO[N+](=O)[O-])cc1 [B3, 4-((nitrooxy)methyl)phenyl 2-actetoxy-4-methylbenzoate]
- EC50 [1, 22]: 55.1 µM
- EC50 [2, 23]: 4 µM

SMILES: C#Cc1cc(CO[N+](=O)[O-])ccc1OC(=O)c1ccccc1 [B20, 2-ethynyl-4-((nitrooxy)methyl)phenyl benzoate]
- EC50 [1, 24]: 308 µM
- EC50 [2, 23]: 21.8 µM

SMILES: CC(=O)Oc1ccc(C)cc1C(=O)Oc1ccc(CO[N+](=O)[O-])cc1 [B2, 4-((nitrooxy)methyl)phenyl 2-actetoxy-5-methylbenzoate]
- EC50 [1, 22]: 48.5 µM
- EC50 [2, 23]: 4.75 µM

SMILES: O=C(Oc1ccc(CO)cc1)c1ccccc1 [B8, 4-(hydroxymethyl)phenyl benzoate]
- EC50 [2, 23]: 57.3 µM

SMILES: O=C(Oc1ccc(CO[N+](=O)[O-])cc1)c1cc(C(F)(F)F)ccc1Cl [B6, 4-((nitrooxy)methyl)phenyl 2-chloro-5-(trifluoromethyl)benzoate]
- EC50 [1, 22]: 73.9 µM
- EC50 [2, 23]: 4.42 µM

SMILES: O=C(Oc1ccc(CCl)cc1)c1ccccc1 [B12, 4-(chloromethyl)phenyl benzoate]
- reduction of NFkappaB activity (phosphorylated NFkappaBp65) [3]: concentration dependent reduction
- concentration inducing the reduction of NFkappaB p65 protein [3]: 10 µM
- ATP content in SW480, MelJuso, HCC44, SH2 and COLO704 cell lines [4]: reduced ATP content
- ATP content in JVM-3 [5]: reduced ATP content
- ATP content in EHEB [6]: reduced ATP content
- EC50 [7]: 130 µM
- EC50 [8]: 1 to 5 µM
- EC50 [9]: 4.79 µM
- EC50 [10]: 0.54 µM
- ATP content in U2932 [11]: reduced ATP content
- EC50 [12]: 3.24 µM
- EC50 [13]: 2.77 µM
- EC50 [14]: 0.01 µM
- EC50 [15]: 7.35 µM
- EC50 [16]: 1.68 µM
- effect on TP53-mutated CLL cells in comparison to para-NO-ASA (B1) [17]: more effective
- EC50 [18]: 1.8 µM
- EC50 [19]: 0.68 µM
- effect on CLL cells without a TP53 mutation [20]: great effect
- EC50 [1, 22]: 35 µM
- EC50 ([21]; 24 h): 1.03 µM
- EC50 ([21]; Homo sapiens, HCC44, 24 h): 1.05 µM
- selectivity for CLL cells compared to PBMCs ([2]; 24 h): selective for CLL cells
- EC50 [2, 23]: 1.33 µM

SMILES: Nc1cccc2c(S(=O)(=O)Oc3ccc(CO[N+](=O)[O-])cc3)cccc12 [B16, 4-((nitrooxy)methyl)phenyl 5-aminonaphthalene-1-sulfonate]
- EC50 [1, 24]: 370 µM
- EC50 [2, 23]: 82.4 µM

SMILES: O=COCc1ccc(OC(=O)c2ccccc2)cc1 [B10, 4-((formyloxy)methyl)phenyl benzoate]
- EC50 [1, 24]: 859 µM
- EC50 [2, 23]: 79.4 µM

SMILES: COc1ccccc1C(=O)Oc1ccc(CO[N+](=O)[O-])cc1 [B18, 4-((nitrooxy)methyl)phenyl 2-methoxybenzoate]
- EC50 [2, 23]: 26 µM

SMILES: O=C(Oc1ccc(CO)cc1)c1cc(C(F)(F)F)ccc1Cl [B5, 4-(hydroxymethyl)phenyl 2-chloro-5-(trifluoromethyl)benzoate]
- EC50 [1, 24]: 108 µM
- EC50 [2, 23]: 37.2 µM

SMILES: COc1cc(CO[N+](=O)[O-])ccc1OC(=O)c1ccccc1 [B11, 2-methoxy-4-((nitrooxy)methyl)phenyl benzoate]
- EC50 ([1]; 24 h, read-out: AnnexinV/PI assay EC50 PBMCs): 24.4 µM
- EC50 ([2]; 24 h): 14.7 µM

SMILES: O=C(Oc1ccc(CO[N+](=O)[O-])cc1)c1cccc2ccccc12 [B13, 4-((nitrooxy)methyl)phenyl 1-naphthoate]
- reduction of NFkappaB activity (phosphorylated NFkappaBp65) [3]: concentration dependent reduction
- concentration inducing the reduction of NFkappaB p65 protein [3]: 10 µM
- ATP content in SW480, MelJuso, HCC44, SH2 and COLO704 cell lines [4]: reduced ATP content
- ATP content in JVM-3 [5]: reduced ATP content
- ATP content in EHEB [6]: reduced ATP content
- EC50 [7]: 190 µM
- EC50 [8]: 7 to 57 µM
- EC50 [9]: 57.5 µM
- EC50 [10]: 4.79 µM
- ATP content in U2932 [11]: reduced ATP content
- EC50 [12]: 24.1 µM
- EC50 [13]: 7.86 µM
- EC50 [14]: 0.64 µM
- EC50 [15]: 37.9 µM
- EC50 [16]: 6.95 µM
- effect on TP53-mutated CLL cells in comparison to para-NO-ASA (B1) [17]: more effective
- EC50 [18]: 53.7 µM
- EC50 [19]: 19.7 µM
- EC50 [1, 22]: 52.7 µM
- EC50 ([21]; Homo sapiens, HCC44, 24 h): 1.68 µM
- selectivity for CLL cells compared to PBMCs ([2]; 24 h): selective for CLL cells
- EC50 [2, 23]: 1.04 µM

Source: patent US10793509B2, “Compounds useful in the treatment of neoplastic diseases” (UNIVERSITÄT ZU KÖLN, priority 2013, dated 2020)
